“And” between values parts separate entries of the source, which are not always exact repeats. Identical values can stand only once. “Also recorded” adds a separate entry of the source. Like-named read-outs stand apart in the source and are kept apart here.
Assays:
lymphoid leukemia L1210 [1] = settings: for OD / ILS / T-C / animals alive per 6: Table VIII; for animals alive per 6: QD1-9, day 30, at OD; for survivors, IP L1210: Table XI, parentheses, per 6
From the text: ^b Ip tumor implantation, ip QD19 treatment schedule.
^e ILS = [(treated survival + control survival) × 100%] - 100%
The L1210, P388 and B16 test systems described in Table II utilize intraperitoneal (IP) tumor implantation and IP drug treatment while the Lewis lung system employs subcutaneous tumor implantation and IP treatment. All three CNS tumor models (Table III) use intracerebral (IC) tumor implantation and IP treatment.
Aqueous saline solution (0.9%) was used as the drug vehicle. Normally, five doses were employed per experiment with the top dose chosen to produce toxicity. The lower doses were 50% of each preceeding dose.
Consistent with NCI antitumor test protocols, intraperitoneal (IP) administration of the drug was employed with all five tumor systems investigated. Tumor implantation was IP in the systems designated IP leukemia L1210 and P388 as well as B16 melanoma. Intracerebral (IC) tumor implantation was utilized in the IC L1210 and ependymoblastoma tumor systems.

lymphoid leukemia L1210 [2] = format: in vivo, murine; settings: for OD: QD1-9, Table X; for ILS: QD1-9, at OD, Table X
From the text: (§1) A third IC tumor model, the ependymoblastoma system, was also studied. This system requires intracerebral implantation of a solid tumor fragment while the IC L1210 and IC P388 systems utilize IC inoculated ascites tumor fluid. All three use IP drug treatment however. […] Cures (survivors from the group of six mice on the last day of the experiment) are indicated.

B16 melanocarcinoma = format: in vivo, murine; settings: for OD: QD1-9, Table IX; for ILS: QD1-9, at OD, Table IX
ependymoblastoma = format: in vivo, murine; settings: for OD: QD1-5, Table X; for ILS: QD1-5, at OD; for ILS / animals alive per 6: Table X; for animals alive per 6: QD1-5, day 60, at OD; for survivors, EM: Table XI, parentheses, per 6
From the text: ^c Ic tumor implantation, ip QD15 treatment schedule.
as §1

[3] = test system: lymphocytic leukemia P388; format: in vivo, murine; settings: for ILS: QD1-9, at OD; for OD: QD1-9, Table IX

| Compound | activity in IP L1210 (lymphoid leukemia L1210 [1]) | OD (lymphoid leukemia L1210 [1]; Day 1 only (1 injection)) | ILS (lymphoid leukemia L1210 [1]; Day 1 only, at OD) | OD (lymphoid leukemia L1210 [1]; Q4D (day 1,5,9)) | ILS (lymphoid leukemia L1210 [1]; Q4D, at OD) | OD (lymphoid leukemia L1210 [1]; QD1-9 (9 injections)) | ILS (lymphoid leukemia L1210 [1]; QD1-9, at OD) | OD (B16 melanocarcinoma) | ILS (B16 melanocarcinoma) | OD (ependymoblastoma) | ILS (ependymoblastoma) | ILS ([3]; Table IX) | OD [3] | other results |
| --- | --- | --- | --- | --- | --- | --- | --- | --- | --- | --- | --- | --- | --- | --- |
| CCNC1=C(N2CC2)C(=O)C(NCC)=C(N2CC2)C1=O [Compound 35, 2,5-DIAZIRIDINYL-3,6-BIS(ETHYLAMINO)-1,4-BENZOQUINONE] | activity appears to peak | 1.5 mg/kg/injection | 68% and 54% | 3.0 mg/kg/injection and 1.5 mg/kg/injection | 75% and 57% | 1.5 mg/kg/injection | 112% and 91% | 0.4 mg/kg/injection and 0.7 mg/kg/injection | 26% and 24% | 1.5 mg/kg/injection | 218% and 187% | 160% and 103% |  | T-C (lymphoid leukemia L1210 [1]; QD1-9, day 5, at OD): -3.3 grams; animals alive per 6 (lymphoid leukemia L1210 [1]): 2 and 1; survivors, IP L1210 (lymphoid leukemia L1210 [1]): 2; OD (lymphoid leukemia L1210 [2]): 3.0 mg/kg/injection; ILS (lymphoid leukemia L1210 [2]): 44% and 40%; activity in ependymoblastoma (ependymoblastoma): most active; animals alive per 6 (ependymoblastoma): 2; survivors, EM (ependymoblastoma): 2 |
| NC(=O)CNC1=C(N2CC2)C(=O)C(NCC(N)=O)=C(N2CC2)C1=O [Compound 40] |  | 10.0 mg/kg/injection | 21% and 15% | 8.0 mg/kg/injection |  | 10.0 mg/kg/injection | 92% and 91% |  | 37% and 22% | 2.0 mg/kg/injection and 1.0 mg/kg/injection | 64% and 50% | 85% and 71% | 2.0 mg/kg/injection | ILS (lymphoid leukemia L1210 [2]): 16% |
| CCCNC1=C(N2CC2)C(=O)C(NCCC)=C(N2CC2)C1=O [Compound 36] | significant reduction in activity |  | 17% | 6.2 mg/kg/injection | 28% and 25% | 6.2 mg/kg/injection | 48% and 43% | 5.0 mg/kg/injection | 36% and 32% | 5.0 mg/kg/injection and 10.0 mg/kg/injection | 259% and 143% | 151% and 108% | 6.0 mg/kg/injection | activity in ependymoblastoma (ependymoblastoma): highly active; also recorded: very active; also recorded: most active; animals alive per 6 (ependymoblastoma): 2 and 1; survivors, EM (ependymoblastoma): 2; animals alive per 6 ([3]; QD1-9, day 30, at OD, Table IX): 2; survivors, P388 ([3]; Table XI, parentheses, per 6): 2 |
| CN(CCO)C1=C(N2CC2)C(=O)C(N(C)CCO)=C(N2CC2)C1=O [Compound 42] |  |  | -5% | 0.4 mg/kg/injection and 0.2 mg/kg/injection |  | 1.5 mg/kg/injection | 114% and 111% | 0.8 mg/kg/injection | 47% and 31% | 0.4 mg/kg/injection and 0.2 mg/kg/injection | 84% and 69% | 162% | 1.6 mg/kg/injection and 0.8 mg/kg/injection | animals alive per 6 (lymphoid leukemia L1210 [1]): 1; survivors, IP L1210 (lymphoid leukemia L1210 [1]): 1; OD (lymphoid leukemia L1210 [2]): 4.0 mg/kg/injection and 2.0 mg/kg/injection; ILS (lymphoid leukemia L1210 [2]): 45% and 32%; activity in B16 melanoma (B16 melanocarcinoma): approached minimal reproducible activity |
| CCCCNC1=C(N2CC2)C(=O)C(NCCCC)=C(N2CC2)C1=O [Compound 37] | significant reduction in activity | 10.0 mg/kg/injection | 11% and 5% | 12.5 mg/kg/injection and 8.2 mg/kg/injection | 44% and 25% | 10.0 mg/kg/injection and 5.0 mg/kg/injection | 36% and 30% | 10.0 mg/kg/injection and 5.0 mg/kg/injection |  | 6.0 mg/kg/injection and 3.0 mg/kg/injection | 93% | 64% and 49% | 5.0 mg/kg/injection and 10.0 mg/kg/injection |  |
| CCOC(=O)NC1=C(NCCCl)C(=O)C(NC(=O)OCC)=C(NCCCl)C1=O [Compound 12] | activity was abolished |  |  |  |  |  |  |  |  |  |  |  |  |  |
| O=C1C(N2CCCCC2)=C(N2CC2)C(=O)C(N2CCCCC2)=C1N1CC1 [Compound 44] |  |  | 16% and 8% |  | 26% and 22% | 10.0 mg/kg/injection | 28% | 5.0 mg/kg/injection and 2.5 mg/kg/injection |  |  | 68% and 46% | 46% and 77% | 5.0 mg/kg/injection and 10.0 mg/kg/injection | T-C (lymphoid leukemia L1210 [1]; QD1-9, day 5, at OD): -2.2 grams |
| O=C1C(N2CCCC2)=C(N2CC2)C(=O)C(N2CCCC2)=C1N1CC1 [Compound 43, 2,5-DIAZIRIDINYL-3,6-DIPYRROLIDINO-1,4-BENZOQUINONE] |  | 4.0 mg/kg/injection and 2.0 mg/kg/injection | 8% | 6.2 mg/kg/injection | 43% | 2.0 mg/kg/injection | 24% and 21% | 2.0 mg/kg/injection | 28% and 18% | 1.6 mg/kg/injection and 3.1 mg/kg/injection |  | 72% and 55% |  | T-C (lymphoid leukemia L1210 [1]; Q4D, day 5, at OD): -2.3 grams |
| CCOC(=O)NC1=C(N2CC2C)C(=O)C(NC(=O)OCC)=C(N2CC2C)C1=O (centres unmarked) [Compound 10] | abolished activity |  |  |  |  |  |  |  |  |  |  |  |  |  |
| CC(=O)NC1=C(N2CC2(C)C)C(=O)C(NC(C)=O)=C(N2CC2(C)C)C1=O [Compound 21] | abolished activity |  |  |  |  |  |  |  |  |  |  |  |  |  |
| CCSC1=C(N2CC2)C(=O)C(SCC)=C(N2CC2)C1=O [Compound 5] | not reproducible |  |  |  |  |  |  |  |  |  |  |  |  | % ILS (lymphoid leukemia L1210 [1]; Q4D schedule): 30% |
| O=C1C(F)=C(N2CC2)C(=O)C(N2CCOCC2)=C1N1CC1 [Compound 31, 2,5-DIAZIRIDINYL-3-FLUORO-5-MORPHOLINO-1,4-BENZOQUINONE] |  |  |  | 6.2 mg/kg/injection and 3.1 mg/kg/injection |  |  |  | 0.7 mg/kg/injection | 18% and 9% | 0.8 mg/kg/injection and 1.5 mg/kg/injection | 49% and 40% | 57% and 54% | 3.0 mg/kg/injection and 6.0 mg/kg/injection | activity in IP P388 [3]: active against leukemia P388 |
| CCOC(=O)NC1=C(N2CC2(C)C)C(=O)C(NC(=O)OCC)=C(N2CC2(C)C)C1=O [Compound 11] | abolished activity |  |  |  |  |  |  |  |  |  |  |  |  |  |
| O=C1C(N2CCOCC2)=C(N2CC2)C(=O)C(N2CCOCC2)=C1N1CC1 [Compound 46, 2,5-DIAZIRIDINYL-3,6-DIMORPHOLINO-1,4-BENZOQUINONE] |  |  | -14% | 6.0 mg/kg/injection | 49% and 44% |  | 64% and 32% |  | 24% and 17% |  | 134% and 82% | 52% and 48% | 0.5 mg/kg/injection and 0.7 mg/kg/injection | T-C (lymphoid leukemia L1210 [1]; Q4D, day 5, at OD): -2.6 grams |
| CCCSC1=C(N2CC2)C(=O)C(SCCC)=C(N2CC2)C1=O [Compound 6] | inactive |  |  |  |  |  |  |  |  |  |  |  |  |  |
| CNC1=C(N2CC2C)C(=O)C(NC)=C(N2CC2C)C1=O (centres unmarked) [Compound 26] |  | 5.0 mg/kg/injection and 10.0 mg/kg/injection | 42% and 39% | 12.5 mg/kg/injection | 93% and 52% | 5.0 mg/kg/injection | 69% and 37% | 5.0 mg/kg/injection | 70% and 48% | 10.0 mg/kg/injection and 5.0 mg/kg/injection |  |  |  | OD (lymphoid leukemia L1210 [2]): 5.0 mg/kg/injection and 10.0 mg/kg/injection; ILS (lymphoid leukemia L1210 [2]): 39% and 25%; activity in B16 melanoma (B16 melanocarcinoma): reproducibly active; activity in ependymoblastoma (ependymoblastoma): highly active; animals alive per 6 (ependymoblastoma): 1; survivors, EM (ependymoblastoma): 1 |

Source: patent US4704384A, “Aziridinyl quinone antitumor agents” (priority 1981, dated 1987)
